Measured values as given in patent US20060281686A1, “Aza-peptides” (priority 2002, published 2006).
*1 amine or outer side, *2 acyl side, *3 side chain or, on linkers, in order; H or OH if unused. Where a SMILES comes first, the peptide text is derived from it. [ ]: non-standard residue; d: D form. azaPhe = O=C(N(Cc1ccccc1)N[*:1])[*:2]; azaPro = O=C(N1CCCN1[*:1])[*:2]

How the values were obtained:
[1] = In vitro peptide stability in human plasma; assay type: in vitro ADME; settings: after 24 h incubation at 37° C. in fresh human plasma; HPLC peak area vs sample incubated in PBS; read-out: % of intact peptide in human plasma
Procedure: (§1) Peptides were prepared as a 1 μg/μl solution in water. 20 μl of the peptide solution was diluted in 80 μl of fresh human plasma or 10% rat brain homogenate (prepared in PBS). The resulting solution was incubated at 37° C. for different times and the reaction was stopped by adding a complete cocktail of protease inhibitors. The bulk of plasma and brain proteins (but none of the peptide) were precipitated in cold methanol (mix/MeOH, 4/5, v/v) during one hour at −20° C. The precipitated proteins were pelleted by centrifugation (10000 g, 10 min, 4° C.). The supernatant, containing the peptide, was concentrated 5 times under vacuum and separated by reverse-phase HPLC. The area of the peak corresponding to the intact peptide was measured and compared with an equivalent sample incubated in PBS. The results are listed in Table 1 as percentage of intact peptide after 24 h incubation at 37° C. in human plasma and in rat brain homogenate. The values compare favourably with those obtained for the reference compound of Example 8.

[2] = In vitro peptide stability in rat brain homogenate; assay type: in vitro ADME; settings: after 24 h incubation at 37° C. in 10% rat brain homogenate; HPLC peak area vs sample incubated in PBS; read-out: % of intact peptide in rat brain homogenate
Procedure: as §1

Compound	remaining at 24 h, 0.2 μg/μl [1] [%]	remaining at 24 h, 0.2 μg/μl [2] [%]
CC(=O)N[C@@H](CC(C)C)C(=O)N1CCCN1C(=O)N[C@@H](Cc1ccccc1)C(=O)N[C@@H](Cc1ccccc1)C(=O)N[C@@H](CC(=O)O)C(N)=O [Example 6, Ac-L-P^a-F-F-D-NH2] (Ac-L[azaPro]FFD-NH2)	93	80
Ac-LPFFD-NH2 [Example 8, reference compound]	74	2
CC(=O)N[C@@H](CC(C)C)C(=O)N1CCC[C@H]1C(=O)NN(Cc1ccccc1)C(=O)N[C@@H](Cc1ccccc1)C(=O)N[C@@H](CC(=O)O)C(N)=O [Example 5, Ac-L-P-F^a-F-D-NH2] (Ac-LP[azaPhe]FD-NH2)	93	71
